From paper PMC4710522, “A Novel Triazolopyridine-Based Spleen Tyrosine Kinase Inhibitor That Arrests Joint Inflammation” (PLoS ONE, 2016)

Assays:
[1] = test system: rat collagen-induced arthritis model; conditions: 10 or 30 mg/kg b.i.d.; cited from earlier work
[2] = test system: AMPK_r; assay: SelectScreen kinase assay; type: biochemical, rat; conditions: 3 µM, KM ATP
Procedure: Syk kinase mode of inhibition studies, including parameters described in Fig 1, were conducted on the LC3000 platform by Caliper Life Sciences (Hopkinton, MA) according to standard protocols developed by the supplier. […] Non-kinase enzyme assays and GPCR, ion channel, and transporter binding assays were run by CEREP (France). Non-GLP manual patch clamp hERG assays were run by ChanTest (Cleveland, Ohio). Vivid® Assay kits (Life Technologies) were used to measure the cytochrome P450 inhibition of the compound against CYP3A, CYP2C9, CYP2C19, CYP2D6, and CYP1A2, as described.
Kinase activity was measured using either the Z’-Lyte® or the Adapta® protocols as part of the SelectScreen™ profiling service offered at Life Technologies (Grand Island, NY). For the single point measurements (Part A), CC-509 was kept constant at 3 µM while ATP concentrations [ATP] used were at the KM for ATP (KM ATP) for that specific enyzme, at 10 or 100 µM ATP (10 ATP or 100 ATP, respectively), as indicated. Values expressed as percent control (% control) relative to DMSO-only wells (uninhibited, 100%).
Kinase activity was measured using either the Z’-Lyte® or the Adapta® protocols as part of the SelectScreen™ profiling service offered at Life Technologies (Grand Island, NY). […] Values expressed as percent control (% control) relative to DMSO-only wells (uninhibited, 100%).

[3] = molecular target: Syk (Homo sapiens, UniProt P43405); assay: Syk HTRF assay; type: biochemical; design: purchased Carna Biosciences 08-176; conditions: in-house, mean ± SD, n = 8
Procedure: CC-509 was prepared at a concentration of 1.5 mM in dimethyl sulfoxide (DMSO) followed by 3-fold dilutions in Greiner 384 well polypropylene plates. […] Time resolved fluorescence was read in assay plates on a PerkinElmer EnVision. […] The IC50 value was determined as described in the data fitting section below.
For the TEL-Syk assay, the intensity values for the 700 and 800 channel were exported as text files in ActivityBase (IDBS, Guildford, UK) to derive the ratios that reflect kinase activity. […] For the JAK2 HEL and Ramos NFAT β-lactamase assays, the fluorescence values obtained at 460 nm and 530 nm were exported into ActivityBase to calculate response ratios. […] Evans blue dye extravasation was expressed as mean ± SEM and % inhibition for the test article groups was normalized to the cromolyn positive control. […] The mean data from each group was plotted and either the AUC(day 11–18) or % inhibition on day 18 was calculated. Data is expressed as mean ± SEM of each group with n = 6–12. […]

[4] = molecular target: T1, cSRC_h (Homo sapiens, UniProt P12931); assay: SelectScreen kinase assay; type: biochemical; conditions: KM ATP, read-out: % control
T1 construct: purchased Life Technologies (Invitrogen) SelectScreen, Z'-LYTE / Adapta
T1 sequence (P12931 whole entry): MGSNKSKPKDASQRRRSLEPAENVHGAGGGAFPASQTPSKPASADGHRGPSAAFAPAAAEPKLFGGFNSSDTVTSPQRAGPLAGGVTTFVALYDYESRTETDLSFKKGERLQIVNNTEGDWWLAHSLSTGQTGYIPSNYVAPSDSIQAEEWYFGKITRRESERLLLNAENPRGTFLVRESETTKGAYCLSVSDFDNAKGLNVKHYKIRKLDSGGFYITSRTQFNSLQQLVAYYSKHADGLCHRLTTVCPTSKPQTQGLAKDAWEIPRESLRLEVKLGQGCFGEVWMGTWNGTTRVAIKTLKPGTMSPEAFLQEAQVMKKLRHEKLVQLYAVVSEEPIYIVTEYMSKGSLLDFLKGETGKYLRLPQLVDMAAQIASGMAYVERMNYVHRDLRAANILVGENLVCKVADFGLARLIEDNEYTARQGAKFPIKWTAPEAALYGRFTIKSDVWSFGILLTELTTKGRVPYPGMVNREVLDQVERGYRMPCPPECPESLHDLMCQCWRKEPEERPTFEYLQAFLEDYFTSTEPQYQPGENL

Row | SMILES | clinical paw score in rat CIA [1] | % control [2] [%] | IC50 [3] [nM] | remaining activity at 3 µM [4] [%]
1 | COc1cc(Nc2ncc(F)c(Nc3ccc4c(n3)NC(=O)C(C)(C)O4)n2)cc(OC)c1OC [R406, reference compound] | significantly reduced | – | – | –
2 | c1cc(CC2CCOCC2)n2nc(Nc3ccc4c(NC5CCOCC5)n[nH]c4c3)nc2c1 [CC-509, [3-(2H-3,4,5,6-tetrahydropyran-4-ylamino)(1H-indazol-6-yl)][5-(2H-3,4,5,6-tetrahydropyran-4-ylmethyl)(2H-1,2,4-triazolo[1,5-a]pyridin-2-yl)]amine] | – | 84 | 26 ± 6 | 67
